According to the CheMixHub viscosity set:

Experiment: xn = mol fraction of the nth substance listed

ClC(Cl)(Cl)Cl + Cc1ccccc1
viscosity [mPa·s], 101 kPa
Conditions | 293.15 K | 298.15 K | 303.15 K | 313.15 K
x1 = 0.1022 | 0.6227 | 0.5867 | 0.5527 | 0.4932
x1 = 0.1977 | 0.6508 | 0.6111 | 0.5749 | 0.5126
x1 = 0.3029 | 0.6875 | 0.6446 | 0.606 | 0.5394
x1 = 0.4043 | 0.7215 | 0.6753 | 0.634 | 0.5628
x1 = 0.4982 | 0.7585 | 0.712 | 0.6656 | 0.5897
x1 = 0.5988 | 0.7983 | 0.7461 | 0.6988 | 0.6181
x1 = 0.7091 | 0.8428 | 0.7861 | 0.7353 | 0.6485
x1 = 0.8107 | 0.8905 | 0.8298 | 0.7755 | 0.6831
x1 = 0.916 | 0.9415 | 0.88 | 0.8249 | 0.719
x2 = 0.1 | – | 0.8643 | – | –
x2 = 0.2 | – | 0.8211 | – | –
x2 = 0.3 | – | 0.7802 | – | –
x2 = 0.4 | – | 0.7415 | – | –
x2 = 0.5 | – | 0.7049 | – | –
x2 = 0.6 | – | 0.6705 | – | –
x2 = 0.7 | – | 0.6381 | – | –
x2 = 0.8 | – | 0.6078 | – | –
x2 = 0.9 | – | 0.5794 | – | –

ClC(Cl)(Cl)Cl + Cc1ccccc1C
298.15 K, 101 kPa
Conditions | viscosity [mPa·s]
x1 = 0.0656 | 0.722
x1 = 0.2424 | 0.636
x1 = 0.4464 | 0.606
x1 = 0.5536 | 0.628
x1 = 0.5803 | 0.639
x1 = 0.6341 | 0.666
x1 = 0.793 | 0.772
x1 = 0.9312 | 0.872

CCCOC(C)=O + ClC(Cl)(Cl)Cl
101.33 kPa
Conditions | viscosity [mPa·s]
303.15 K, x2 = 0.0422 | 0.526
303.15 K, x2 = 0.1298 | 0.547
303.15 K, x2 = 0.2541 | 0.576
303.15 K, x2 = 0.3334 | 0.598
303.15 K, x2 = 0.488 | 0.639
303.15 K, x2 = 0.5271 | 0.657
303.15 K, x2 = 0.6005 | 0.676
303.15 K, x2 = 0.7049 | 0.716
303.15 K, x2 = 0.8748 | 0.784
303.15 K, x2 = 0.9403 | 0.815
313.15 K, x2 = 0.2073 | 0.494
313.15 K, x2 = 0.4055 | 0.541
313.15 K, x2 = 0.5078 | 0.568
313.15 K, x2 = 0.601 | 0.593
313.15 K, x2 = 0.802 | 0.661

CCN(CC)CC + ClC(Cl)Cl
298.15 K, 101 kPa
Conditions | viscosity [mPa·s]
x2 = 0.0983 | 0.389
x2 = 0.1979 | 0.442
x2 = 0.2978 | 0.503
x2 = 0.3989 | 0.567
x2 = 0.4988 | 0.618
x2 = 0.5829 | 0.64
x2 = 0.6859 | 0.631
x2 = 0.8008 | 0.604
x2 = 0.901 | 0.574

ClC(Cl)(Cl)Cl + ClC(Cl)Cl
Conditions | viscosity [mPa·s]
293.15 K, 101.33 kPa, x1 = 0.2087 | 0.6645
293.15 K, 101.33 kPa, x1 = 0.517 | 0.7319
293.15 K, 101.33 kPa, x1 = 0.9083 | 0.9238
298.15 K, 101 kPa, x1 = 0.1566 | 0.569
298.15 K, 101 kPa, x1 = 0.5099 | 0.659
298.15 K, 101 kPa, x1 = 0.7699 | 0.761
298.15 K, 101 kPa, x2 = 0.2298 | 0.761
298.15 K, 101 kPa, x2 = 0.51 | 0.659
298.15 K, 101 kPa, x2 = 0.8437 | 0.569
298.15 K, 101.33 kPa, x1 = 0.2087 | 0.6296
298.15 K, 101.33 kPa, x1 = 0.517 | 0.6888
298.15 K, 101.33 kPa, x1 = 0.9083 | 0.8561
298.16 K, 101 kPa, x2 = 0.151 | 0.816
298.16 K, 101 kPa, x2 = 0.328 | 0.732
298.16 K, 101 kPa, x2 = 0.61 | 0.633
298.16 K, 101 kPa, x2 = 0.803 | 0.583
303.15 K, 101.3 kPa, x1 = 0.502 | 0.6248
303.15 K, 101.33 kPa, x1 = 0.2087 | 0.5964
303.15 K, 101.33 kPa, x1 = 0.517 | 0.6543
303.15 K, 101.33 kPa, x1 = 0.9083 | 0.8041
308.15 K, 101.33 kPa, x1 = 0.2087 | 0.5644
308.15 K, 101.33 kPa, x1 = 0.517 | 0.6241
308.15 K, 101.33 kPa, x1 = 0.9083 | 0.7523
313.15 K, 101.33 kPa, x1 = 0.2087 | 0.5501
313.15 K, 101.33 kPa, x1 = 0.517 | 0.5928
313.15 K, 101.33 kPa, x1 = 0.9083 | 0.7143
318.15 K, 101.33 kPa, x1 = 0.2087 | 0.523
318.15 K, 101.33 kPa, x1 = 0.517 | 0.5657
318.15 K, 101.33 kPa, x1 = 0.9083 | 0.6686
323.15 K, 101.33 kPa, x1 = 0.2087 | 0.5032
323.15 K, 101.33 kPa, x1 = 0.517 | 0.5444
323.15 K, 101.33 kPa, x1 = 0.9083 | 0.6335

ClC(Cl)(Cl)Cl + ClCCCl
303.15 K, 101.3 kPa
Conditions | viscosity [mPa·s]
x2 = 0.1081 | 0.7755
x2 = 0.1414 | 0.7609
x2 = 0.1994 | 0.739
x2 = 0.3171 | 0.7081
x2 = 0.3777 | 0.6975
x2 = 0.5001 | 0.6832
x2 = 0.5454 | 0.6817
x2 = 0.5978 | 0.6814
x2 = 0.6503 | 0.6809
x2 = 0.6758 | 0.6824
x2 = 0.7592 | 0.6879
x2 = 0.8193 | 0.6942
x2 = 0.8711 | 0.7016
x2 = 0.8965 | 0.7055
x2 = 0.934 | 0.7126

ClC(Cl)(Cl)Cl + Clc1ccccc1
298.15 K, 101 kPa
Conditions | viscosity [mPa·s]
x2 = 0.2 | 0.844
x2 = 0.4 | 0.81
x2 = 0.6 | 0.787
x2 = 0.8 | 0.769

FCCl + FC(F)(Cl)C(F)(F)Cl
Conditions | viscosity [mPa·s]
312.21 K, 101.13 kPa, x1 = 0.754 | 0.2322

CC1CCCCC1O (centres undefined) + NC1CCCCC1
viscosity [mPa·s], 100 kPa
Conditions | x1 = 0.04642 | x1 = 0.09319 | x1 = 0.1878 | x1 = 0.2839 | x1 = 0.3814 | x1 = 0.4805 | x1 = 0.5811 | x1 = 0.6834 | x1 = 0.7872 | x1 = 0.8928
293.15 K | 2.657 | 2.965 | 3.533 | 4.632 | 5.819 | 7.685 | 11.76 | 15.63 | 20 | 27.62
298.15 K | 2.328 | 2.582 | 3.048 | 3.894 | 4.852 | 6.53 | 9.343 | 12.39 | 15.17 | 19.95
303.15 K | 2.057 | 2.27 | 2.656 | 3.351 | 4.096 | 5.343 | 7.677 | 9.722 | 11.73 | 14.98
308.15 K | 1.833 | 2.008 | 2.335 | 3.042 | 3.498 | 4.468 | 6.235 | 7.748 | 9.687 | 11.45
313.15 K | 1.645 | 1.791 | 2.068 | 2.65 | 3.018 | 3.782 | 5.118 | 6.295 | 7.365 | 8.876

ClC(Cl)(Cl)Cl + Nc1ccccc1
298.15 K, 101.32 kPa
Conditions | viscosity [mPa·s]
x2 = 0.1018 | 0.991
x2 = 0.2047 | 1.111
x2 = 0.325 | 1.297
x2 = 0.3901 | 1.418
x2 = 0.4954 | 1.655
x2 = 0.5976 | 1.914
x2 = 0.7051 | 2.263
x2 = 0.8076 | 2.672
x2 = 0.9265 | 3.3

CCN(CC)CC + O
293.15 K, 100 kPa
Conditions | viscosity [mPa·s]
x1 = 0.0049 | 1.176
x1 = 0.0095 | 1.323
x1 = 0.015 | 1.554
x2 = 0.1006 | 0.4211
x2 = 0.204 | 0.5113
x2 = 0.2996 | 0.6374
x2 = 0.4007 | 0.8296
x2 = 0.4997 | 1.135
x2 = 0.5997 | 1.614
x2 = 0.7028 | 2.385
x2 = 0.98 | 1.722
